Experimental data taken from patent US20150368213A1, “Novel Inhibitors of System Xc-” (The University of Montana, Missoula, MT, priority 2014, published 2015).
Read-outs that look alike come from different tables or passages of the source.

Biological target: T1, System xc− (Sxc−, glutamate/cystine antiporter) (Homo sapiens, UniProt Q9UPY5)
T1 construct: A number of glioma cell lines, including SNB-19, express markedly higher levels of Sxc^−; host or cells: SNB-19 human glioma cells
T1 sequence (Q9UPY5 1-501): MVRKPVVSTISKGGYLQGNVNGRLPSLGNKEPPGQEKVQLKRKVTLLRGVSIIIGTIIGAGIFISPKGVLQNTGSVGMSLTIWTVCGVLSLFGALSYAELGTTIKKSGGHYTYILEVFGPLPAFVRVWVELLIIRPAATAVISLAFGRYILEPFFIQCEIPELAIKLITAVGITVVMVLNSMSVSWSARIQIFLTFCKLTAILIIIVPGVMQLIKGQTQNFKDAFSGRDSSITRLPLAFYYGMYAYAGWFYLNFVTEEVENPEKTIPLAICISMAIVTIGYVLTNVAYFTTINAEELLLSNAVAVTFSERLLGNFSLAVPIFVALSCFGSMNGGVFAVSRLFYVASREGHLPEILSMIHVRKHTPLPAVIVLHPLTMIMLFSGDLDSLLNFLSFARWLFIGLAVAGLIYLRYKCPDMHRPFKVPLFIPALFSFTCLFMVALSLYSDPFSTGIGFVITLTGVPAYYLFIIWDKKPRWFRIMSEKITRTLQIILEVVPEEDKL
T1 sequence (P08195 1-529 partner): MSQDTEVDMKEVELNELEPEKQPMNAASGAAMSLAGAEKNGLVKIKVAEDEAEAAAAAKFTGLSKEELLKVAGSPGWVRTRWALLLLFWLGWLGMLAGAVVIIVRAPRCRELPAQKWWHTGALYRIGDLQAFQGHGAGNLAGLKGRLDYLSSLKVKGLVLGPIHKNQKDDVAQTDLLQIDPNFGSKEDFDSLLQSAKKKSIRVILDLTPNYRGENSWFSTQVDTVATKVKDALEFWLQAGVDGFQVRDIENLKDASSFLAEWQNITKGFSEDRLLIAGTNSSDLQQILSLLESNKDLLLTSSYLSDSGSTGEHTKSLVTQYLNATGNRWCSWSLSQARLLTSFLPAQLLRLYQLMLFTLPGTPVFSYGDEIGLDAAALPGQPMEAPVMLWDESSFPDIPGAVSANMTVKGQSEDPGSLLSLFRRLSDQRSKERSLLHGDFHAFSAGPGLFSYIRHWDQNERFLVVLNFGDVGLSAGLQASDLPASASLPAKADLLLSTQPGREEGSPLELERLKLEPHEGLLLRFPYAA
Assay: Inhibition of 3H-L-Glu uptake into SNB-19 glioma cells under Cl-dependent (Na-free) conditions
Type: cell-based
Settings: for 3H-L-Glu Uptake (% control): 100 μM 3H-L-Glu, smaller number = greater inhibition; for inhibitory activity, ranking among compounds of Table 1: comment on Table 1
Procedure: SNB-19 glioma cells, purchased from American Type Culture Collection (Manassas, Va.), were grown in DMEM/F-12 medium (pH 7.4) containing 1 mM pyruvate and 16 mM NaHCO3 and supplemented with 10% fetal calf serum. The cells were cultured in 150 cm^2 flasks (Corning) and maintained at 37° C. in a humidified atmosphere of 5% CO2. In the ^3H-L-Glu uptake experiments, cells were seeded in 12 well culture plates (Costar) at a density of 5×10^4 cells/well and maintained for 3 days until 80-90% confluent. Protein concentrations were determined by the bicinchoninic acid (BCA) method (Pierce).
Uptake of ^3H-L-Glu into cultured cells was quantified using a modification of the procedure of Martin and Shane as previously described by Patel et al. (supra). Briefly, after removal of culture media, wells were rinsed three times and pre-incubated in 1 ml Na^+-free HEPES buffered (pH 7.4) Hank's balanced salt solution (HBHS) at 30° C. for 5 min. The Nat free buffer contained: 137.5 mM choline Cl, 5.36 mM KCl, 0.77 mM KH2PO4, 0.71 mM MgSO^4.7H2O, 1.1 mM CaCl2, 10 mM D-glucose, and 10 mM HEPES. Uptake was initiated by aspiration of the pre-incubation buffer and the addition of a 500 gl aliquot of Na^+-free transport buffer containing ^3H-L-Glu (4-16 mCi/m1) mixed with L-Glu (10-500 μM, final concentration). In those assays that evaluated inhibitor activity, the 500 gl aliquot of transport buffer contained both the ^3H-L-Glu and potential inhibitors to ensure simultaneous addition. Following a 5 min incubation at 30° C., the assays were terminated by three sequential 1 ml washes with ice cold buffer after which the cells were dissolved in 1 ml of 0.4 M NaOH for 24 h. An aliquot (200 μl) was then transferred into a 5 ml glass scintillation vial and neutralized with the addition of 5 gl glacial acetic acid followed by 3.5 ml Liquiscint© scintillation fluid (National Diagnostics) to each sample. Incorporation of radioactivity was quantified by liquid scintillation counting (LSC, Beckman LS 6500). Values are reported as mean±S.E.M. and are corrected for non-specific uptake (e.g., leakage and binding) by subtracting the amount of ^3H-L-Glu accumulation at 4° C.
The inhibitory activity of the compounds was determined by quantifying the ability of the analogues to reduce the accumulation of ^3H-L-Glu into human SNB-19 glioblastoma cells under Cl-dependent (Na-free) conditions. A number of glioma cell lines, including SNB-19, express markedly higher levels of Sxc^− and reduced levels of the sodium-dependent excitatory amino acid transporters (“EAATs”) than do primary astrocytes, making them well suited for pharmacological assays (Ye et al., Compromised glutamate transport in human glioma cells: reduction-mislocalization of sodium-dependent glutamate transporters and enhanced activity of cystine-glutamate exchange, J Neurosci, 1999 Dec. 15, 19(24), 10767-77). The compounds of the invention were initially screened at a single concentration of substrate (100 μM ^3H-L-Glu) and isoxazole (500 μM) to confirm inhibitory activity. […] (The data are reported as % of control uptake, thus the smaller the number the greater the level of inhibition.)
A slope replot for 5-4-TFM-Benzyl-4-bis-TFM-HMICA is included in FIG. 3, (average Ki=3±1 μM, n=5). […] In the instance of 5-4-TFM-Benzyl-4-bis-TFM-HMICA the replot of I/Vmax,apparent vs. [I] was indeed linear and yielded a Ki of about 8 μM (plots not shown). […] As the identification of the di-substituted isoxazoles as noncompetitive inhibitors was unexpected, the kinetic data was also analyzed using the Eadie-Hofstee method as a second graphical approach.

[1] = SNB-19 cells, 3H-L-Glu uptake, read-out: KI 3H-L-Glu Uptake

| SMILES | pattern (mechanism) of inhibition (Michaelis-Menten, LWB and Eadie-Hofstee analyses, FIGS. 1-4) | 3H-L-Glu Uptake (% control) (compound 100 μM, SNB-19 cells) | Ki (replot of LWB graphs, plots not shown, read-out: Ki from 1/Vmax,apparent vs. [I] replot) | Ki (slope replot (FIG. 3), n=5, read-out: average Ki from LWB slope vs. [I] replot) | Ki [1] | inhibitory activity, ranking among compounds of Table 1 | 3H-L-Glu Uptake (% control) (compound 500 μM, SNB-19 cells) | inhibition of the System Xc- antiporter, in words (statement in the crystal structure description) |
| --- | --- | --- | --- | --- | --- | --- | --- | --- |
| C/C(=N\Nc1cc(C(F)(F)F)cc(C(F)(F)F)c1)c1c(C(=O)O)noc1Cc1ccc(C(F)(F)F)cc1 [5-4-TFM-Benzyl-4-bis-TFM-HMICA] | noncompetitive inhibition | 14 % control | ~8 µM | 3 ± 1 µM | – | – | – | – |
| Cc1onc(-c2c3ccccc3c(Cl)c3ccccc23)c1C(=O)NC(Cc1cc(Br)c(O)c(Br)c1)C(=O)O (centres unmarked) [AIM-DBT, 2-(3-(10-chloroanthracen-9-yl)-5-methylisoxazole-4-carboxamido)-3-(3,5-dibromo-4-hydroxyphenyl)propanoic acid] | – | 8 % control | – | – | 15 µM | greatest inhibitory activity | – | – |
| Cc1onc(-c2c(OCc3ccccc3)ccc3ccccc23)c1C(=O)N[C@@H](Cc1cc(Br)c(O)c(Br)c1)C(=O)O [Compound 3ND-101, (2S)-2-(3-(2-(benzyloxy)naphthalen-1-yl)-5-methylisoxazole-4-carboxamido)-3-(3,5-dibromo-4-hydroxyphenyl)propanoic acid] | – | 8 % control | – | – | – | greatest inhibitory activity | 1 % control | – |
| COc1ccc2ccccc2c1-c1noc(C)c1C(=O)NC(Cc1cc(Br)c(O)c(Br)c1)C(=O)O (centres unmarked) [MOI-16, 3-(3,5-dibromo-4-hydroxyphenyl)-2-(5-methyl-3-(2-methoxynaphthalen-1-yl)isoxazole-4-carboxamido)propanoic acid] | – | 32 % control | – | – | – | – | 8 % control | potent inhibitor |

Now from value to molecule:

| pattern (mechanism) of inhibition (Michaelis-Menten, LWB and Eadie-Hofstee analyses, FIGS. 1-4) | 3H-L-Glu Uptake (% control) (compound 100 μM, SNB-19 cells) | Ki (replot of LWB graphs, plots not shown, read-out: Ki from 1/Vmax,apparent vs. [I] replot) | Ki (slope replot (FIG. 3), n=5, read-out: average Ki from LWB slope vs. [I] replot) | Ki [1] | inhibitory activity, ranking among compounds of Table 1 | 3H-L-Glu Uptake (% control) (compound 500 μM, SNB-19 cells) | inhibition of the System Xc- antiporter, in words (statement in the crystal structure description) | SMILES |
| --- | --- | --- | --- | --- | --- | --- | --- | --- |
| – | 52 % control | – | – | 25 µM | – | – | – | CN(C)c1cccc2c(S(=O)(=O)NC(Cc3cc(Br)c(O)c(Br)c3)C(=O)O)cccc12 (centres unmarked) [Danzyl-DBT, 3-(3,5-dibromo-4-hydroxyphenyl)-2-(5-(dimethylamino)naphthalene-1-sulfonamido)propanoic acid] |
| – | 23 % control | – | – | – | – | 6 % control | – | Cc1onc(-c2cccc3ccccc23)c1C(=O)NC(Cc1cc(Br)c(O)c(Br)c1)C(=O)O (centres unmarked) [LC-19, 3-(3,5-dibromo-4-hydroxyphenyl)-2-(5-methyl-3-(naphthalen-1-yl)isoxazole-4-carboxamido)propanoic acid] |
